Laboratory results as given in patent US12441730B2, “PRMT5 inhibitors” (Merck Sharp & Dohme LLC, priority 2019, dated 2025).
Like-named read-outs stand apart in the source and are kept apart here.

Assays:
[1] = target: T1, Full-length (FL)-PRMT5-MEP50 enzyme complex (Homo sapiens, UniProt O14744); assay: PRMT5-MEP50 Enzyme Methylation Assay (Version A); format: biochemical
T1 construct: Full-length (FL)-PRMT5-MEP50 enzyme complex (recombinant proteins from baculovirus-transfected Sf21 cells: FL-PRMT5; MW=73837 kDa and FL-MEP50; MW=38614); made in house; host or cells: baculovirus-transfected Sf21 cells
T1 sequence (O14744 whole entry): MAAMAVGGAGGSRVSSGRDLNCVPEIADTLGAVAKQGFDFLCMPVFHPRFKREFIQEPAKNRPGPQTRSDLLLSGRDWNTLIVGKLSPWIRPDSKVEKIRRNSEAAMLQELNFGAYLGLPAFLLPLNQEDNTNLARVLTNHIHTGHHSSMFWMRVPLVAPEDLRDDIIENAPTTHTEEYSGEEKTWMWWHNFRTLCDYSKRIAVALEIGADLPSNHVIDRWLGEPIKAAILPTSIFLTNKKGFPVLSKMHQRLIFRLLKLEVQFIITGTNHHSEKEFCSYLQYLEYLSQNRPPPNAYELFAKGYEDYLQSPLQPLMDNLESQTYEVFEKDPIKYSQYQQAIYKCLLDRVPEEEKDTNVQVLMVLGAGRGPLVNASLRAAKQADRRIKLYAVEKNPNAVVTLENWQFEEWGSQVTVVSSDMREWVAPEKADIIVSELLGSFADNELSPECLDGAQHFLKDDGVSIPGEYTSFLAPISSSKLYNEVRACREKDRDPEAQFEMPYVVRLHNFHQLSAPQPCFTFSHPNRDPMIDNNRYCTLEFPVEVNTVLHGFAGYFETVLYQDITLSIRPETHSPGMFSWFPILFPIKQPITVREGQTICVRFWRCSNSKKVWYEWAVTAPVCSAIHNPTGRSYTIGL
T1 sequence (Q9BQA1 whole entry partner): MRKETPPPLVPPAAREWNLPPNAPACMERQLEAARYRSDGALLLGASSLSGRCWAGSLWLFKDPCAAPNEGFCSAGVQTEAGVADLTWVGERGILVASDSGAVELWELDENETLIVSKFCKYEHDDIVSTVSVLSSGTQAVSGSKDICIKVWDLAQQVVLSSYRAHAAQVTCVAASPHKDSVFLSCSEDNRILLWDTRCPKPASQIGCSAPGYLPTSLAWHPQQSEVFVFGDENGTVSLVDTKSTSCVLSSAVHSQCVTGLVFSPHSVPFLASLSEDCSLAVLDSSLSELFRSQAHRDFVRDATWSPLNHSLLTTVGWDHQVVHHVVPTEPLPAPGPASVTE
Outline: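 Compound was pre-incubated with enzyme for 60 min, then reacted 150 min at 37° C. at final 1.0 nM PRMT5-MEP50, 15 μM SAM and 75 nM biotinylated H4R3(Me1) peptide, in 50 mM Bicine pH 8.0 with 1% DMSO. SAMDI mass-spectrometric readout of Me1→Me2 conversion. EC50 from 4- or 7-parameter regression.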

[2] = test system: symmetric dimethylation of arginine (SDMA) of PRMT5 substrates in MCF-7 cells; assay: PRMT5 Cell Target Engagement (TE) Assay; format: cell-based; settings: 3 days treatment, SDMA high content imaging
Outline: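 MCF-7 cells treated 3 days at 37 °C with a ten-point 1:3 titration from 10000 nM. Fixed cells immunostained with anti-SDMA and Alexa488 secondary; nuclear fluorescence quantified by high-content imaging versus DMSO wells, with IC50 from a 4-parameter fit.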

[3] = second value of 7 parameter biphasic fit, read-out: Enzyme Methylation Assay Version A (EC50 2)
[4] = single EC50 = 4 parameter single site sigmoidal fit, EC50 1 = first value of 7 parameter biphasic fit, read-out: Enzyme Methylation Assay Version A (EC50 or EC50 1)

## CNC(=O)c1cc(Br)cn2cc(C(=O)N3CC[C@]4(Cc5ccccc5CN4)[C@H](O)C3)nc12 [Example 51, 6-bromo-2-((3R,3’R)-3′-hydroxy-1,4-dihydro-2H-spiro[isoquinoline-3,4′-piperidine]-1′-carbonyl)-N-methylimidazo[1,2-a]pyridine-8-carboxamide]
[1]; [3]
  EC50: 1500 nM
[1]; [4]
  EC50: 7.02 nM
[2]; Homo sapiens, MCF7, 72 h
  EC50: 13.7 nM

## Cc1nc(C)c(-c2cnc3nc(C(=O)N4CC[C@]5(Cc6ccccc6CN5)[C@H](O)C4)cn3c2)s1 [Example 79, [6-(2,4-dimethyl-1,3-thiazol-5-yl)imidazo[1,2-a]pyrimidin-2-yl][(3R,3′R)-3′-hydroxy-1,4-dihydro-1′H,2H-spiro[isoquinoline-3,4′-piperidin]-1′-yl]methanone]
[1]; [4]
  EC50: 1.08 nM
[2]; Homo sapiens, MCF7, 72 h
  EC50: 5.3 nM

## O=C(c1c[nH]c2ncncc12)N1CC[C@]2(Cc3ccccc3CN2)[C@H](O)C1 [Example 190, [(3R,3′R)-3′-hydroxy-1,4-dihydro-1′H,2H-spiro[isoquinoline-3,4′-piperidin]-1′-yl](1H-pyrrolo[2,3-d]pyrimidin-5-yl)methanone]
[1]; [4]
  EC50: 343 nM
[2]; Homo sapiens, MCF7, 72 h
  EC50: ≥ 10000 nM

## COc1cccnc1-c1cc([C@@H](C)OC)c2nc(C(=O)N3CC[C@]4(Cc5ccccc5CN4)[C@H](O)C3)cn2c1 [Example 238, [(3R,3′R)-3′-hydroxy-1,4-dihydro-1′H,2H-spiro[isoquinoline-3,4′-piperidin]-1′-yl]{8-[(1R)-1-methoxyethyl]-6-(3-methoxy-2-pyridinyl)imidazo[1,2-a]pyridin-2-yl}methanone]
[1]; [4]
  EC50: 1.27 nM
[2]; Homo sapiens, MCF7, 72 h
  EC50: 4.25 nM

## CCOc1nc(C)ccc1C(=O)N1CC[C@]2(Cc3ccccc3CN2)[C@H](O)C1 [Example 200, (2-ethoxy-6-methyl-3-pyridinyl)[(3R,3′R)-3′-hydroxy-1,4-dihydro-1′H,2H-spiro[isoquinoline-3,4′-piperidin]-1′-yl]methanone]
[1]; [3]
  EC50: 3020 nM
[1]; [4]
  EC50: 6.73 nM
[2]; Homo sapiens, MCF7, 72 h
  EC50: 214 nM

## O=C(c1ccn2c(Br)cnc2n1)N1CC[C@]2(Cc3ccccc3CN2)[C@H](O)C1 [Example 57, (3-bromoimidazo[1,2-a]pyrimidin-7-yl)[(3R,3′R)-3′-hydroxy-1,4-dihydro-1′H,2H-spiro[isoquinoline-3,4′-piperidin]-1′-yl]methanone]
[1]; [3]
  EC50: 55000 nM
[1]; [4]
  EC50: 63.1 nM
[2]; Homo sapiens, MCF7, 72 h
  EC50: 2190 nM

## O=C(c1cn2cc(C3CC3(F)F)cnc2n1)N1CC[C@]2(Cc3ccccc3CN2)[C@H](O)C1 (single isomer, unassigned) [Example 77]
[1]; [3]
  EC50: 108 nM
[1]; [4]
  EC50: 1.46 nM
[2]
  EC50: 23.8 nM

## Cc1ccc(C(=O)N2CC[C@]3(Cc4ccccc4CN3)[C@H](O)C2)cn1 [Example 221, [(3R,3′R)-3′-hydroxy-1,4-dihydro-1′H,2H-spiro[isoquinoline-3,4′-piperidin]-1′-yl](6-methyl-3-pyridinyl)methanone]
[1]; [3]
  EC50: 3510 nM
[1]; [4]
  EC50: 43.6 nM
[2]; Homo sapiens, MCF7, 72 h
  EC50: 2540 nM

## Cc1cc(C)n2nc(C(=O)N3CC[C@]4(Cc5ccccc5CN4)[C@H](O)C3)nc2n1 [Example 178, (5,7-dimethyl-[1,2,4]triazolo[1,5-a]pyrimidin-2-yl)((3R,3′R)-3′-hydroxy-1,4-dihydro-2H-spiro[isoquinoline-3,4′-piperidin]-1′-yl)methanone]
[1]; [3]
  EC50: 85100 nM
[1]; [4]
  EC50: 129 nM
[2]; Homo sapiens, MCF7, 72 h
  EC50: 3210 nM

## O=C(c1cn2cc(Br)cnc2n1)N1CC[C@]2(Cc3ccccc3CN2)[C@H](O)C1 [Example 24, (6-bromoimidazo[1,2-a]pyrimidin-2-yl)((3R,3’RR)-3′-hydroxy-1,4-dihydro-1′H,2H-spiro[isoquinoline-3,4′-piperidin]-1′-yl)methanone]
[1]; [3]
  EC50: 146 nM
[1]; [4]
  EC50: 0.461 nM
[2]; Homo sapiens, MCF7, 72 h
  EC50: 4.09 nM

## O=C(c1cn2cc(Cl)ccc2n1)N1CC[C@]2(Cc3ccccc3CN2)[C@H](O)C1 [Example 37, (6-chloroimidazo[1,2-a]pyridin-2-yl)((3R,3’R)-3′-hydroxy-1,4-dihydro-2H-spiro[isoquinoline-3,4′-piperidin]-1′-yl)methanone]
[1]; [3]
  EC50: 251 nM
[1]; [4]
  EC50: 0.757 nM
[2]; Homo sapiens, MCF7, 72 h
  EC50: 1.61 nM

## CCC1Oc2ccc(C(=O)N3CC[C@]4(Cc5ccccc5CN4)[C@H](O)C3)cc2NC1=O (single isomer, unassigned) [Example 105, (2S or 2R)-2-ethyl-6-((3R,3′R)-3′-hydroxy-1,4-dihydro-2H-spiro[isoquinoline-3,4′-piperidine]-1′-carbonyl)-2H-benzo[b][1,4]oxazin-3(4H)-one]
[1]; [3]
  EC50: 146 nM
[1]; [4]
  EC50: 0.519 nM
[2]
  EC50: 4.39 nM

## COc1nccc(-c2cc([C@@H](C)OC)c3nc(C(=O)N4CC[C@]5(Cc6ccccc6CN5)[C@H](O)C4)cn3c2)n1 [Example 240, [(3R,3′R)-3′-hydroxy-1,4-dihydro-1′H,2H-spiro[isoquinoline-3,4′-piperidin]-1′-yl]{8-[(1R)-1-methoxyethyl]-6-(2-methoxy-4-pyrimidinyl)imidazo[1,2-a]pyridin-2-yl}methanone]
[1]; [3]
  EC50: 112 nM
[1]; [4]
  EC50: 0.376 nM
[2]; Homo sapiens, MCF7, 72 h
  EC50: 21 nM

## O=C(c1cn2cc(C(F)(F)F)cnc2n1)N1CC[C@]2(Cc3ccccc3CN2)[C@H](O)C1 [Example 169, [(3R,3′R)-3′-hydroxy-1,4-dihydro-1′H,2H-spiro[isoquinoline-3,4′-piperidin]-1′-yl][6-(trifluoromethyl)imidazo[1,2-a]pyrimidin-2-yl]methanone]
[1]; [3]
  EC50: 427 nM
[1]; [4]
  EC50: 1.51 nM
[2]; Homo sapiens, MCF7, 72 h
  EC50: 89 nM

## Cc1nc2ncc(C(=O)N3CC[C@]4(Cc5ccccc5CN4)[C@H](O)C3)n2cc1Br [Example 140, (6-bromo-7-methylimidazo[1,2-a]pyrimidin-3-yl)[(3R,3′R)-3′-hydroxy-1,4-dihydro-1′H,2H-spiro[isoquinoline-3,4′-piperidin]-1′-yl]methanone]
[1]; [4]
  EC50: 1390 nM
[2]; Homo sapiens, MCF7, 72 h
  EC50: 2090 nM

## Cc1ccc2c(c1)C[C@]1(CCN(C(=O)c3cn4cc(C5CC5)cnc4n3)C[C@H]1O)NC2 (single isomer, unassigned) [Example 227]
[1]; [4]
  EC50: 8.47 nM
[2]; Homo sapiens, MCF7, 72 h
  EC50: 26.7 nM

## CCCOc1nc(C)ccc1C(=O)N1CC[C@]2(Cc3ccccc3CN2)[C@H](O)C1 [Example 201, [(3R,3′R)-3′-hydroxy-1,4-dihydro-1′H,2H-spiro[isoquinoline-3,4′-piperidin]-1′-yl](6-methyl-2-propoxy-3-pyridinyl)methanone]
[1]; [3]
  EC50: 1020 nM
[1]; [4]
  EC50: 1.36 nM
[2]; Homo sapiens, MCF7, 72 h
  EC50: 168 nM

## Cc1cn2cc(C(=O)N3CC[C@]4(Cc5ccccc5CN4)[C@H](O)C3)nc2nc1O [Example 131, 2-{[(3R,3′R)-3′-hydroxy-1,4-dihydro-1′H,2H-spiro[isoquinoline-3,4′-piperidin]-1′-yl]carbonyl}-6-methylimidazo[1,2-a]pyrimidin-7(1H)-one]
[1]; [3]
  EC50: 74100 nM
[1]; [4]
  EC50: 70.8 nM
[2]; Homo sapiens, MCF7, 72 h
  EC50: ≥ 10000 nM

## COc1nc2nc(C(=O)N3CC[C@]4(Cc5ccccc5CN4)[C@H](O)C3)cn2cc1C1CC1 [Example 251, (6-cyclopropyl-7-methoxyimidazo[1,2-a]pyrimidin-2-yl)[(3R,3′R)-3′-hydroxy-1,4-dihydro-1′H,2H-spiro[isoquinoline-3,4′-piperidin]-1′-yl]methanone]
[1]; [4]
  EC50: 547 nM
[2]; Homo sapiens, MCF7, 72 h
  EC50: 1850 nM

## O=C(c1cn2cc(Br)cc(CO)c2n1)N1CC[C@]2(Cc3ccccc3CN2)[C@H](O)C1 [Example 6, (6-bromo-8-(hydroxymethyl)imidazo[1,2-a]pyridin-2-yl)((3R,3’R)-3′-hydroxy-1,4-dihydro-2H-spiro[isoquinoline-3,4′-piperidin]-1′-yl)methanone]
[1]; [3]
  EC50: 220 nM
[1]; [4]
  EC50: 0.71 nM
[2]; Homo sapiens, MCF7, 72 h
  EC50: 3.24 nM

## COC(C)c1cnc2nc(C(=O)N3CC[C@]4(Cc5ccccc5CN4)[C@H](O)C3)cn2c1 (single isomer, unassigned) [Example 137]
[1]; [3]
  EC50: 251 nM
[1]; [4]
  EC50: 1.92 nM
[2]
  EC50: 124 nM

## COC(C)(C)c1ccc2nc(C(=O)N3CC[C@]4(Cc5ccccc5CN4)[C@H](O)C3)cn2c1 (stereo in doubt) [Example 46, (3′-hydroxy-2,4-dihydro-1H-spiro[isoquinoline-3,4′-piperidin]-1′-yl)(6-(2-methoxypropan-2-yl)imidazo[1,2-a]pyridin-2-yl)methanone]
[1]; [3]
  EC50: 138 nM
[1]; [4]
  EC50: 0.498 nM
[2]; Homo sapiens, MCF7, 72 h
  EC50: 27.1 nM

## O=C(c1cn2cc(Br)cc(C(O)C(F)(F)F)c2n1)N1CC[C@]2(Cc3ccccc3CN2)[C@H](O)C1 (single isomer, unassigned) [Example 31, (6-bromo-8-((S or R)-2,2,2-trifluoro-1-hydroxyethyl)imidazo[1,2-a]pyridin-2-yl)((3R,3’R)-3′-hydroxy-1,4-dihydro-2H-spiro[isoquinoline-3,4′-piperidin]-1′-yl)methanone]
[1]; [3]
  EC50: 72.4 nM
[1]; [4]
  EC50: 0.215 nM
[2]
  EC50: 4.49 nM

## CO[C@H](C)c1cc(-c2conc2C)cn2cc(C(=O)N3CC[C@]4(Cc5ccccc5CN4)[C@H](O)C3)nc12 [Example 246, [(3R,3′R)-3′-hydroxy-1,4-dihydro-1′H,2H-spiro[isoquinoline-3,4′-piperidin]-1′-yl]{8-[(1R)-1-methoxyethyl]-6-(3-methyl-4-isoxazolyl)imidazo[1,2-a]pyridin-2-yl}methanone]
[1]; [4]
  EC50: 0.977 nM
[2]; Homo sapiens, MCF7, 72 h
  EC50: 6.31 nM
